The values below come from patent US9622987B2, “Synergistic pharmaceutical composition useful for the treatment of lung cancer” (Council of Scientific & Industrial Research, priority 2012, dated 2017).

One assay has as its system Lung Cancer cell Line (A-549). Kind of assay: Cell death / viability of A549 lung cancer cells exposed to vapour (MTT, trypan blue). Type of assay: cell-based. Particulars: vapors of single compounds, 1:2000 dilution, 48 h, A549.
Method: The lung cancer cell line, A-549 were cultured in DMEM (Dulbecco's Modified Eagle Medium) containing Earle's salts and non-essential amino acids supplemented with 10% fetal calf serum, penicillin (100 U/ml) and streptomycin (100 μg/ml) in a humidified 95% O2/5% CO2 atmosphere at 37° C. Confluent cells were subcultured by trypsinization and subsequently seeded in 6 well culture plates containing DMEM with essential supplements.
After CVp treatment, cells were washed with PBS, trypsinized and re-suspended in complete growth medium. Trypan blue (0.4%) was added to the cell suspension and both live and dead cells were counted using a heamocytometer.
Cell viability was determined by performing MTT assay (Chemicon, Temecula, Calif., USA) according to manufacturer's instructions. Briefly, cells were plated in 96 well plates. Overnight after cell plating, cells were incubated with CVp. Briefly, 10 μL of 3-(4,5-dimethylthiazol-2-yl)-2-5-diphenyl tetrazolium bromide (MTT) was added to each well for 4 h at 37° C. After solubilization in 100 μL 1(N) isopropanol/0.04(N) HCl, absorbance was read at 595 nm in microplate reader (Thermo Electron Corporation, MA, USA).
The vapors generated from each of these wells were exposed to cells at 1:2000 dilution for 48 h. […] We therefore used the vapor from these combined compounds which is henceforth termed as Combined Vapour (CVp=C2+C3+C4).
For the molecule `CC(C)=CCCC(C)CCO` (stereo not drawn) [Compound C4, Citronellol], the “activity so far lung cancer cell death is concerned (FIG. 1C)” value is listed as “highest activity”.
Consider `CC(C)=CCCC(C)CC=O` (stereo not drawn) [Compound C1, Citronellal], for which the “activity so far lung cancer cell death is concerned (FIG. 1C)” value is “poor activity”.

The assay is the same for the next values; noted with them: vapour form; A-549.
For `C=C(C)[C@@H]1CC[C@@H](C)C[C@H]1O` [Compound C3, Isopulegol], the “Activity in vapour form % of cell death for Lung Cancer cell Line (A-549)” value amounted to 36.0 ± 4.5%.
Still for that read-out and setting: for `C=C(C)C1CCC(C)CC1O` (stereo not drawn) [Compound C2, Neo-isopulegol] the value was 30.5 ± 5.0%; for `CC(C)=CCCC(C)CCO` (stereo not drawn) [Compound C4, Citronellol], 70.0 ± 6.0%.
As to `CC(C)=CCCC(C)CC=O` (stereo not drawn) [Compound C1, Citronellal], the “Activity in vapour form % of cell death for Lung Cancer cell Line (A-549)” value turned out to be 12.5 ± 3.6%.
